Measurements published in patent US20210219542A1, “COMPOSITIONS AND METHODS FOR STORAGE OF RED BLOOD CELLS” (THE REGENTS OF THE UNIVERSITY OF COLORADO, A BODY CORPORATE, priority 2018, published 2021).

Experiments:
[1] = test system: red blood cells (RBC); assay: RBC storage in AS-3 with Ado and/or S1P, LC-MS metabolomics of cells and supernatants; type: cell-based; details: for amount of hypoxanthine in RBC and supernatants / 2,3-DPG levels / ATP production / oxidized glutathione levels / reduced glutathione levels: RBC-AS-3 stored at 4° C.; for amount of hypoxanthine in RBC and supernatants: at least up to a concentration less than 100 μM, at which point Ado becomes a substrate for hypoxanthine production, FIG. 5; for 2,3-DPG levels: first two weeks of storage, FIG. 2; for ATP production: first week of storage, FIG. 3; for oxidized glutathione levels / reduced glutathione levels: supplemented conditions, FIG. 4; for glycolytic activity as measured by the lactate-to-glucose ratio: RBC-AS-3 suspension stored at 4° C., Ado 0.1-100 μM or S1P 1-10 μM or both, versus unsupplemented storage, FIG. 1
Method: RBC Storage: To ensure sterility, all storage conditions were set up and subsequently sampled in a biosafety cabinet. The RBC-AS-3 suspension was carefully removed from the bag into 3 ml aliquots inside 15 ml conical tubes. Stock concentrations (formulated in house-made AS-3) of ^13C5-Ado or d7-S1P were diluted to final concentrations of 0.1, 1, 10, and 100 μM for Ado or 1, 5, and 10 μM for S1P. Also included was a storage condition consisting of 10 Ado+5 μM S1P. […] The tubes were gently mixed and placed at 4° C. for storage. On days 2, 8, 11, 15, 22, 29, and 43, the tubes were placed back in a biosafety cabinet and 300 μl were sampled. The tubes were placed back at 4° C., and the samples were centrifuged for 10 minutes at 1500 g, 4° C. Supernatants were separated from cells and frozen until analysis (1st analysis after day 22 sampling). LC-MS Metabolomics: Metabolomics analyses were performed as previously described (Nemkov et al. (2015) Amino Acids doi:10.1007/s00726-015-2019-9; Nemkov et al. (2017) Rapid Commun. Mass Spectrom. 31, 663-673). Briefly, samples were placed on ice and diluted with 9 volumes of methanol:acetonitrile:water (5:3:2, v:v) for RBC, or with 24 volumes of methanol:acetonitrile:water (5:3:2, v:v) for supernatants. Suspensions were vortexed continuously for 30 min at 4° C. Insoluble material was removed by centrifugation at 18,000 g for 10 min at 4° C. and supernatants were isolated for metabolomics analysis by UHPLC-MS. The analytical platform employed a Vanquish UHPLC system (Thermo Fisher Scientific, San Jose, Calif., USA) coupled online to a Q Exactive mass spectrometer (Thermo Fisher Scientific, San Jose, Calif., USA). Samples were resolved over a Kinetex C18 column, 2.1×150 mm, 1.7 μm particle size (Phenomenex, Torrance, Calif., USA) equipped with a guard column (SecurityGuard™ Ultracartridge—UHPLC C18 for 2.1 mm ID Columns—AJO-8782—Phenomenex, Torrance, Calif., USA) using an aqueous phase (A) of water and 0.1% formic acid and a mobile phase (B) of acetonitrile and 0.1% formic acid for positive ion polarity mode, or an aqueous phase (A) of 5% acetonitrile and 1 mM ammonium acetate in water and a mobile phase (B) of 95% acetonitrile and 1 mM ammonium acetate in water for negative ion polarity mode. Samples were eluted from the column using a gradient from 5% to 95% B over 1.6 minutes, followed by an isocratic hold at 95% B for 1.65 minutes, flowed at 450 μl/min and 40° C. The Q Exactive mass spectrometer (Thermo Fisher Scientific, San Jose, Calif., USA) was operated independently in positive or negative ion mode, scanning in Full MS mode (2 μscans) from 60 to 900 m/z at 70,000 resolution, with 4 kV spray voltage, 15 shealth gas, 5 auxiliary gas. Calibration was performed prior to analysis using the Pierce™ Positive and Negative Ion Calibration Solutions (Thermo Fisher Scientific). Acquired data was then converted from .raw to .mzXML file format using Mass Matrix (Cleveland, Ohio, USA). Samples were analyzed in randomized order with a technical mixture injected after every 15 samples to qualify instrument performance. Metabolite assignments, isotopologue distributions, and correction for expected natural abundances of deuterium, ^13C, and ^15N isotopes were performed using MAVEN (Princeton, N.J., USA). The Q Exactive mass spectrometer (Thermo Fisher Scientific, San Jose, Calif., USA) was operated independently in positive or negative ion mode, scanning in Full MS mode (2 μscans) from 60 to 900 m/z at 70,000 resolution, with 4 kV spray voltage, 15 shealth gas, 5 auxiliary gas. Calibration was performed prior to analysis using the Pierce™ Positive and Negative Ion Calibration Solutions (Thermo Fisher Scientific). Acquired data was then converted from .raw to .mzXML file format using Mass Matrix (Cleveland, Ohio, USA). […] Importantly, the use of a standard processed blood unit is an improvement over previous experiments as this material directly represents a realistic storage strategy.

[2] = test system: red blood cells (RBC); assay: Storage hemolysis: phosphate-conjugated carbohydrates and adenylates in the supernatant fraction of stored RBCs; type: cell-based; details: RBC-AS-3 stored at 4° C.; over storage duration; FIG. 6
Method: RBC Storage: To ensure sterility, all storage conditions were set up and subsequently sampled in a biosafety cabinet. The RBC-AS-3 suspension was carefully removed from the bag into 3 ml aliquots inside 15 ml conical tubes. Stock concentrations (formulated in house-made AS-3) of ^13C5-Ado or d7-S1P were diluted to final concentrations of 0.1, 1, 10, and 100 μM for Ado or 1, 5, and 10 μM for S1P. Also included was a storage condition consisting of 10 Ado+5 μM S1P. […] The tubes were gently mixed and placed at 4° C. for storage. On days 2, 8, 11, 15, 22, 29, and 43, the tubes were placed back in a biosafety cabinet and 300 μl were sampled. The tubes were placed back at 4° C., and the samples were centrifuged for 10 minutes at 1500 g, 4° C. Supernatants were separated from cells and frozen until analysis (1st analysis after day 22 sampling). LC-MS Metabolomics: Metabolomics analyses were performed as previously described (Nemkov et al. (2015) Amino Acids doi:10.1007/s00726-015-2019-9; Nemkov et al. (2017) Rapid Commun. Mass Spectrom. 31, 663-673). Briefly, samples were placed on ice and diluted with 9 volumes of methanol:acetonitrile:water (5:3:2, v:v) for RBC, or with 24 volumes of methanol:acetonitrile:water (5:3:2, v:v) for supernatants. […] Samples were analyzed in randomized order with a technical mixture injected after every 15 samples to qualify instrument performance. […]

Row | Structure (SMILES) | amount of hypoxanthine in RBC and supernatants [1] | 2,3-DPG levels [1] | ATP production [1] | oxidized glutathione levels [1] | reduced glutathione levels [1] | glycolytic activity as measured by the lactate-to-glucose ratio [1] | levels of phosphate-conjugated carbohydrates and adenylates in supernatants (indicative of hemolysis) [2]
1 | CCCCCCCCCCCCC/C=C/[C@@H](O)[C@@H](N)COP(=O)(O)O [S1P, sphingosine 1-phosphate] | markedly decreased | higher 2,3-DPG levels through the first two weeks of storage | improved ATP production through the first week of storage | lower | increased | higher glycolytic activity | significantly lower
2 | Nc1ncnc2c1ncn2[C@@H]1O[C@H](CO)[C@@H](O)[C@H]1O [Ado, adenosine] | markedly decreased | higher 2,3-DPG levels through the first two weeks of storage | improved ATP production through the first week of storage | lower | increased | higher glycolytic activity | significantly lower
